Ten compounds from patent publication US20240132431A1, “METHOD FOR ALKYLATING ACIDIC FUNCTIONAL GROUP” (Chugai Seiyaku Kabushiki Kaisha, priority 2021, published 2024) can be followed below.

This experiment addresses T1, Bcl-2 protein (Recombinant Human Bcl-2 Protein) (Homo sapiens, UniProt P10415).
T1 construct: purchased Novus NBP2-34889
Description: Binding evaluation of mixture library compounds to Bcl-2 using AS-MS (affinity selection mass spectrometry). To be noted: for ASMS ratio (%) n = 1 / ASMS ratio (%) n = 2: ASMS Ratio(%)=(A−C)/B×100; for ASMS ratio (%) n = 1: replicate n = 1; for ASMS ratio (%) n = 2: replicate n = 2. Summed up:
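Affinity selection MS: Bcl-2 20 μM + 1200-cpd mixture, […]/cpd, Tris pH 7.4 buffer w/ Tween-20, DTT; 1 h 23° C dark; P-2 spin SEC; MeCN/MeOH extraction; RP LC/MS. ASMS Ratio(%) = (A−C)/B×100.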

Setting [1] is: AS-MS, mixture of 1200 compounds, Bcl-2.
The mark [2] stands for this setting: AS-MS on the mixture of 1200 library compounds.

T1 sequence (P10415 whole entry): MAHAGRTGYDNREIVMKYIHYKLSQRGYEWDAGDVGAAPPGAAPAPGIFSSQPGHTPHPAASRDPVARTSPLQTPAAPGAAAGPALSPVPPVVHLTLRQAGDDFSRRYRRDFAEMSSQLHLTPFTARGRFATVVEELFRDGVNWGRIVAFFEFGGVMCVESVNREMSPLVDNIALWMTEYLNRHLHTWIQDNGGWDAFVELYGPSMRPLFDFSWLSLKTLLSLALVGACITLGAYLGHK

Regarding `CCOc1cncc(-c2cc(CN3CCN(c4ccc(C(=O)NS(=O)(=O)CCC(F)(F)F)nn4)CC3)cc(OC(F)(F)F)c2)c1` [B2N090-01, 6-[4-[[3-(5-Ethoxypyridin-3-yl)-5-(trifluoromethoxy)phenyl]methyl]piperazin-1-yl]-N-(3,3,3-trifluoropropylsulfonyl)pyridazine-3-carboxamide], the “ASMS ratio (%)” value amounted to 0.0% (n = 1) and 0.0% (n = 2).

In the case of `CCOc1cccc(-c2ccc(C(=O)N3CCN(c4ccc(C(=O)NCC(F)(F)F)nn4)CC3)cc2C)c1` [B1K003-01, 6-[4-[4-(3-Ethoxyphenyl)-3-methylbenzoyl]piperazin-1-yl]-N-(2,2,2-trifluoroethyl)pyridazine-3-carboxamide], under setting [1], the “ASMS ratio (%) n = 1” value came to 0.1% and the “ASMS ratio (%) n = 2” value was −0.2%. For `CCOc1cccc(-c2cc(CN3CCN(c4ccc(C(=O)NCC(F)(F)F)cc4)CC3)cc(C(F)(F)F)c2)c1` [B1K061-01, 4-[4-[[3-(3-Ethoxyphenyl)-5-(trifluoromethyl)phenyl]methyl]piperazin-1-yl]-N-(2,2,2-trifluoroethyl)benzamide], in that order: 2.8% and −1.3%. `CCOc1cncc(-c2cc(CN3CCN(c4ccc(C(=O)NS(C)(=O)=O)nn4)CC3)cc(C(F)(F)F)c2)c1` [B2I088-01, 6-[4-[[3-(5-Ethoxypyridin-3-yl)-5-(trifluoromethyl)phenyl]methyl]piperazin-1-yl]-N-methylsulfonylpyridazine-3-carboxamide]: the “ASMS ratio (%)” value came out at 0.0% (n = 1) and 0.0% (n = 2). For `CCOc1cncc(-c2ccc(CN3CCN(c4ccc(C(=O)NS(=O)(=O)c5ccc(NCCSc6ccccc6)c([N+](=O)[O-])c5)nn4)CC3)c(CC)c2)c1` [B2Q076-01, 6-[4-[[4-(5-Ethoxypyridin-3-yl)-2-ethylphenyl]methyl]piperazin-1-yl]-N-[3-nitro-4-(2-phenylsulfanylethylamino)phenyl]sulfonylpyridazine-3-carboxamide], for the setting “AS-MS, mixture library, Bcl-2”, the “ASMS ratio (%) n = 1” value amounted to 0.0%.

As to `CCOc1cncc(-c2ccc(CN3CCN(c4ccc(C(=O)NCC56CC7CC(CC(C7)C5)C6)cc4)CC3)c(OC)c2)c1` [B1A054-01, N-(1-Adamantylmethyl)-4-[4-[[4-(5-ethoxypyridin-3-yl)-2-methoxyphenyl]methyl]piperazin-1-yl]benzamide], under setting [1], the “ASMS ratio (%) n = 1” value is reported as 0.0% and the “ASMS ratio (%) n = 2” value came out at 0.0%. On to `CCOc1cncc(C#Cc2cncc(C(=O)N3CCN(c4ccc(C(=O)N(C)CC56CC7CC(CC(C7)C5)C6)nn4)CC3)c2)c1` [B3A010-01, N-(1-Adamantylmethyl)-6-[4-[5-[2-(5-ethoxypyridin-3-yl)ethynyl]pyridine-3-carbonyl]piperazin-1-yl]-N-methylpyridazine-3-carboxamide], for which, under setting [2], the “ASMS ratio (%) n = 1” value amounted to 0.0% and the “ASMS ratio (%) n = 2” value is reported as 0.0%. `CCOc1cncc(-c2ccccc2CN2CCN(c3ccc(C(=O)NS(=O)(=O)CC45CC6CC(CC(C6)C4)C5)cc3)CC2)c1` [B2A046-01, N-(1-Adamantylmethylsulfonyl)-4-[4-[[2-(5-ethoxypyridin-3-yl)phenyl]methyl]piperazin-1-yl]benzamide]: where the note is “AS-MS, mixture library, Bcl-2”, the “ASMS ratio (%) n = 1” value is on record as −2.7% and the “ASMS ratio (%) n = 2” value is −22.1%. For `CCOc1cccc(C#Cc2ccccc2CN2CCN(c3ccc(C(=O)N(CC)CC)nn3)CC2)c1` [B4J095-01, 6-[4-[[2-[2-(3-Ethoxyphenyl)ethynyl]phenyl]methyl]piperazin-1-yl]-N,N-diethylpyridazine-3-carboxamide], in that order: 1.5% and 0.0%. In the case of `CCOc1cccc(-c2ccccc2CN2CCN(c3ccc(C(=O)NS(=O)(=O)c4ccc(NCCSc5ccccc5)c([N+](=O)[O-])c4)nn3)CC2)c1` [B2Q071-01, 6-[4-[[2-(3-Ethoxyphenyl)phenyl]methyl]piperazin-1-yl]-N-[3-nitro-4-(2-phenylsulfanylethylamino)phenyl]sulfonylpyridazine-3-carboxamide], under “AS-MS, mixture library, Bcl-2”, the “ASMS ratio (%) n = 1” value was found to be 25.0% and the “ASMS ratio (%) n = 2” value was determined as 11.2%.
